From patent US10676471B2, “Cycloalkyl-linked diheterocycle derivatives” (Pfizer Inc., priority 2014, dated 2020)

These compounds were tested on BT20 Cell (assay: Cancer Cell Lysate Total L-Glutamate Assay). Conditions: Homo sapiens, BT-20, 2 h, total L-glutamate in cell lysate, BT20 cells, 2 hour incubation with test compound.
Type: cell-based
Summary of the method: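 BT20 and other cancer lines at ~80% confluence were given fresh L-glutamine-containing medium, then treated with serially diluted compound (0.5% DMSO) for 2 hours at 37° C. Washed cells were lysed by freeze-thaw and sonication. Lysate glutamate was measured via glutamate oxidase/HRP/50 μM Amplex Red fluorescence (ex 530-560, em 585 nm); IC50 by four-parameter logistic fit.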
`CC(=O)Nc1nnc(C[C@@H]2CC[C@H](c3nnc(NC(=O)Cc4ccccn4)s3)C2)s1` (single isomer, unassigned) [Example 57, N-{5-[(cis)-3-{[5-(acetylamino)-1,3,4-thiadiazol-2-yl]methyl}cyclopentyl]-1,3,4-thiadiazol-2-yl}-2-(pyridin-2-yl)acetamide] gave an IC50 of 21.4 nM. `CC(=O)Nc1nnc(C2CC3(C2)CC(c2nnc(NC(C)=O)s2)C3)s1` (racemic) [Example 141, N,N′-(spiro[3.3]heptane-2,6-diyldi-1,3,4-thiadiazole-5,2-diyl)diacetamide] gave an IC50 of 298 nM. `O=C(Cc1ccccn1)Nc1ccc(C[C@@H]2CC[C@H](c3nnc(NC4CC4)s3)C2)nn1` (single isomer, unassigned) [Example 110, N-[6-({(cis)-3-[5-(cyclopropylamino)-1,3,4-thiadiazol-2-yl]cyclopentyl}methyl)pyridazin-3-yl]-2-(pyridin-2-yl)acetamide] gave an IC50 of 2.3 nM. `CC(C)C(=O)Nc1nnc([C@H]2CC[C@@H](Cc3ccc(NC(=O)Cc4ccccn4)nn3)C2)s1` [Example 120, 2-methyl-N-{5-[(1S,3R)-3-({6-[(pyridin-2-ylacetyl)amino]pyridazin-3-yl}methyl)cyclopentyl]-1,3,4-thiadiazol-2-yl}propanamide] was tested, and the IC50 was 0.4 nM. `CC(=O)Nc1nnc([C@@H]2CC[C@H](Cc3nnc(NC(=O)Cc4cn5ccccc5n4)s3)C2)s1` (racemic) [Example 149, (rac)-N-[5-({(cis)-3-[5-(acetylamino)-1,3,4-thiadiazol-2-yl]cyclopentyl}methyl)-1,3,4-thiadiazol-2-yl]-2-(imidazo[1,2-a]pyridin-2-yl)acetamide] showed an IC50 of 6.9 nM. `O=C(Cc1ccccn1)Nc1ccc(C2CCC(Cc3nnc(NC(=O)Cc4ccccn4)s3)C2)nn1` (racemic) [Example 26, 2-(pyridin-2-yl)-N-{5-[(3-{6-[(pyridin-2-ylacetyl)amino]pyridazin-3-yl}cyclopentyl)methyl]-1,3,4-thiadiazol-2-yl}acetamide] showed an IC50 of 1.3 nM. For `O=C(Cc1ccccn1)Nc1nnc(C[C@H]2CC[C@@H](c3nnc(Nc4ccccn4)s3)C2)s1` (single isomer, unassigned) [Example 86, 2-(pyridin-2-yl)-N-[5-({(cis)-3-[5-(pyridin-2-ylamino)-1,3,4-thiadiazol-2-yl]cyclopentyl}methyl)-1,3,4-thiadiazol-2-yl]acetamide], the IC50 was 4.8 nM. For `CC(=O)Nc1nnc([C@H]2CC[C@@H](Cc3nnc(NC(=O)Cc4cncnc4)s3)C2)s1` (single isomer, unassigned) [Example 51, N-[5-({(cis)-3-[5-(acetylamino)-1,3,4-thiadiazol-2-yl]cyclopentyl}methyl)-1,3,4-thiadiazol-2-yl]-2-(pyrimidin-5-yl)acetamide], the IC50 was 64.5 nM. `CCNc1nnc(C2CCC(Cc3nnc(NC(C)=O)s3)C2)s1` (racemic) [Example 66, (rac)-N-[5-({(cis)-3-[5-(ethylamino)-1,3,4-thiadiazol-2-yl]cyclopentyl}methyl)-1,3,4-thiadiazol-2-yl]acetamide] gave an IC50 of 1290 nM. In the case of `CC(=O)Nc1nnc(C2CCC(Cc3nnc(NC(=O)Cc4ncccn4)s3)C2)s1` (racemic) [Example 46, (rac)-N-[5-({(cis)-3-[5-(acetylamino)-1,3,4-thiadiazol-2-yl]cyclopentyl}methyl)-1,3,4-thiadiazol-2-yl]-2-(pyrimidin-2-yl)acetamide], the IC50 is reported as 349 nM. `CC(=O)Nc1nnc(C2CCC(C)(c3nnc(NC(C)=O)s3)C2(C)C)s1` (racemic) [Example 60, N,N′-{[-1,2,2-trimethylcyclopentane-1,3-diyl]di-1,3,4-thiadiazole-5,2-diyl}diacetamide] showed an IC50 of 274 nM. With `Cn1ccc(CC(=O)Nc2nnc([C@H]3CC[C@@H](Cc4ccc(NC(=O)Cc5ccccn5)nn4)C3)s2)n1` (single isomer, unassigned) [Example 126, 2-(1-methyl-1H-pyrazol-3-yl)-N-{5-[(cis)-3-({6-[(pyridin-2-ylacetyl)amino]pyridazin-3-yl}methyl)cyclopentyl]-1,3,4-thiadiazol-2-yl}acetamide] the IC50 was 0.5 nM. With `CC(=O)Nc1nnc([C@@H]2CC[C@H](Cc3nnc(NC(=O)Cc4ccccn4)s3)C2)s1` (racemic) [Example 151, (rac)-N-[5-({(cis)-3-[5-(acetylamino)-1,3,4-thiadiazol-2-yl]cyclopentyl}methyl)-1,3,4-thiadiazol-2-yl]-2-(pyridin-2-yl)acetamide] the IC50 was 4.6 nM. `CCC(=O)Nc1nnc([C@H]2C[C@H](Cc3nnc(NC(=O)Cc4ccccn4)s3)C2)s1` (single isomer, unassigned) [Example 106, N-{5-[trans-3-({5-[(pyridin-2-ylacetyl)amino]-1,3,4-thiadiazol-2-yl}methyl)cyclobutyl]-1,3,4-thiadiazol-2-yl}propanamide] showed an IC50 of 13.7 nM. `CC(=O)Nc1nnc(C[C@H]2C[C@@H](c3nnc(NC(=O)Cc4ccc(C)cn4)s3)C2)s1` (single isomer, unassigned) [Example 107, N-[5-(cis-3-{[5-(acetylamino)-1,3,4-thiadiazol-2-yl]methyl}cyclobutyl)-1,3,4-thiadiazol-2-yl]-2-(5-methylpyridin-2-yl)acetamide] showed an IC50 of 10.1 nM. With `CC(=O)Nc1nnc([C@@H]2CC[C@H](Cc3nnc(NC(=O)Cc4cscn4)s3)C2)s1` (racemic) [Example 145, (rac)-N-[5-({(cis)-3-[5-(acetylamino)-1,3,4-thiadiazol-2-yl]cyclopentyl}methyl)-1,3,4-thiadiazol-2-yl]-2-(1,3-thiazol-4-yl)acetamide] the IC50 was 7.1 nM. Compound `CCNc1nnc(C2CCC(Cc3nnc(NC(=O)Cc4ccccn4)s3)C2)s1` (racemic) [Example 24, (rac)-N-[5-({(cis)-3-[5-(ethylamino)-1,3,4-thiadiazol-2-yl]cyclopentyl}methyl)-1,3,4-thiadiazol-2-yl]-2-(pyridin-2-yl)acetamide] has an IC50 of 78.9 nM. Compound `C[C@H](C(=O)Nc1nnc(C[C@@H]2CC[C@H](c3nnc(NC(=O)[C@@H](C)c4cccnc4)s3)C2)s1)c1cccnc1` (single isomer, unassigned) [Example 33, 2-(pyridin-3-yl)-N-(5-{[(cis)-3-(5-{[2-(pyridin-3-yl)propanoyl]amino}-1,3,4-thiadiazol-2-yl)cyclopentyl]methyl}-1,3,4-thiadiazol-2-yl)propanamide] has an IC50 of 7 nM. With `CC(=O)Nc1nnc(C2CC[C@H](Cc3nnc(NC(=O)Cc4ccccn4)s3)C2)s1` (single isomer, unassigned) [Example 19, N-[5-({(cis)-3-[5-(acetylamino)-1,3,4-thiadiazol-2-yl]cyclopentyl}methyl)-1,3,4-thiadiazol-2-yl]-2-(pyridin-2-yl)acetamide] the IC50 was 1470 nM. `CC(C)C(=O)Nc1ccc(C[C@H]2CC[C@@H](c3nnc(NC(=O)Cc4ccccn4)s3)C2)nn1` (single isomer, unassigned) [Example 78, 2-methyl-N-(6-{[(cis)-3-{5-[(pyridin-2-ylacetyl)amino]-1,3,4-thiadiazol-2-yl}cyclopentyl]methyl}pyridazin-3-yl)propanamide] showed an IC50 of 3 nM. `CC(=O)Nc1ccc(C[C@H]2C[C@@H](c3nnc(NC(=O)Cc4ccccn4)s3)C2)nn1` (single isomer, unassigned) [Example 114, N-[5-(cis-3-{[6-(acetylamino)pyridazin-3-yl]methyl}cyclobutyl)-1,3,4-thiadiazol-2-yl]-2-(pyridin-2-yl)acetamide] gave an IC50 of 6.5 nM.
